The source of these data is patent publication US20230204594A1, “SYSTEMS AND METHODS FOR REAL-TIME CELLULAR DRUG-TARGET ENGAGEMENT” (NERD BIO LLC, priority 2021, published 2023).

Test [1] concerns the target T1, BCL6 Micro-tagged protein (BCL6-S-tag fusion protein) (Homo sapiens, UniProt P41182).
T1 construct: expressed in transfected cells; host or cells: HEK293, lysate (1% Triton X-100 in TBS)
As to the kind of experiment: Small molecule target engagement screening on lysates, micro-tagged BCL6 heated at Tmin. Format: binding. The protocol: HEK293 cells were transfected using Lipofectamine 2000 according to manufacturer protocol. Two days after transfection, media was removed and cells lifted by pipetting up and down using 1×TBS. Cells were centrifuged at 400 g for 4 min. The TBS wash was removed and the cells lysed with either 1% Triton X 100 in TBS for MTH1 and BCL6, or 0.5% DDM in TBS for EGFR expressing cells. Cells were lysed at 4° C. on a rotator for 1 hour and cell debris removed by gentle centrifugation for 1 minute at 6000 rpm. Lysates were transferred to a new tube and aliquots that were not used immediately in the assay were frozen at −80° C. for future use.
Small molecule compounds were dissolved in DMSO at 10 mM and serial dilutions in DMSO at 100× concentration were prepared from this stock. Lysates from cells expressing the micro-tagged (S-peptide tagged) protein were diluted with cold 1×TBS at 1/10 and 39.6 ul aliquoted to a PCR plate; […]. The heated sample (30 ul) was added and fluorescence detected using a microplate reader. The plate was read in kinetic mode (excitation=485 nm, emission=520 nm) with the PolarStar Omega 96-well plate reader.
For analysis, the RAW fluorescence signal or fluorescence change per minute was plotted with inhibitor dose on a Semi-Log scale using GraphPad Prism. Nonlinear regression analysis was used for curve fitting to identify EC50 of target engagement or apparent KD.
After 4 minutes incubation the fluorescence detected could be plotted with dose of inhibitor tested on a semi-log scale. Using nonlinear regression analysis and fitting a Sigmoidal dose-response curve (with variable slope) using GraphPad Prism identified an EC50 of Target Engagement. […] The peak fluorescence signal identified the dose of inhibitor that saturates the micro-tag protein target. At concentrations of the inhibitor above this saturating dose there was rapid cleavage of the FRET-labeled substrate resulting in loss of fluorescence signal over time (Relative Light Unit per minute (RLU/min)) and lower fluorescence detected. At concentrations below this saturating dose the micro-tag construct was denatured in the heat challenge and there was less micro-tag available for enzyme complementation resulting in lower fluorescence signal (FIG. 36A). […].

The target of the next test is BCL6 (Homo sapiens, UniProt P41182). The conditions noted are these: known value, read-out: in vitro IC50, cited from earlier work.

Where two headings read alike, the source gives them in different places.

In general, IC50 refers to the concentration at which inhibition is half-maximal. Turning to `CNC(=O)COc1cc2cc(Nc3nc(N4CCC(C(=O)N(C)C)CC4)ncc3Cl)cc(OC)c2n(C)c1=O` [BI-3812], the EC50 in test [1] (HEK293 lysates, heated at Tmin, fluorescence after 4 minutes incubation, FIG. 38A, read-out: EC50 of target engagement) was 0.63 nM; in test [1] (after 15 minutes, FIG. 39B, read-out: EC50 of target engagement after removal of data points beyond the target saturation dose) it was 0.9 nM. In test [1] (Saturation Binding Equation (One-site total), after 15 minutes, FIG. 39C, read-out: Apparent Equilibrium Dissociation Constant (apparent KD)), the Kd is 1.6 nM. Further, the IC50 on BCL6 (well-characterized inhibitor) was around 3 nM.
Turning to `C[C@@H]1C[C@H](C)CN(c2ncc(Cl)c(Nc3ccc4c(c3)cc(OC(C)(C)C(=O)O)c(=O)n4C)n2)C1` [BI-5273], the “binding to the BCL6 micro-tag target” value in test [1] (HEK293 lysates, heated at Tmin, 4 minutes incubation, FIG. 38B) is reported as “did not bind the target”. Further, the half-inhibitory concentration (IC50) at BCL6 (inactive structural analog) is around 10000 nM.
